Laboratory results published in patent US20070037870A1, “Novel substance having alpha-glucosidase inhibiting activity and food containing the same” (MORISHITA JINTAN CO., LTD., priority 2003, published 2007).

Tests used:
α-glucosidase = settings: compared with marketed synthetic medicine Glucobay; cited from earlier work
α-glucosidase (sucrase) = molecular target: T1, α-glucosidase (sucrase) (Rattus norvegicus, UniProt P23739); experiment: Measurement of sucrase (α-glucosidase) inhibiting activity with crude enzyme from rat intestinal acetone powder; type: biochemical; settings: for IC50: crude rat intestinal enzyme, sucrose substrate, 0.1 M maleate buffer pH 6.0, 37° C., 30 minutes; for α-glucosidase inhibiting activity (in words): summary of Table 1 results
T1 construct: The resulting supernatant was separated as a crude enzyme stock solution; tissue SIGMA; host or cells: rat intestine (acetone powder)
T1 sequence (P23739 whole entry): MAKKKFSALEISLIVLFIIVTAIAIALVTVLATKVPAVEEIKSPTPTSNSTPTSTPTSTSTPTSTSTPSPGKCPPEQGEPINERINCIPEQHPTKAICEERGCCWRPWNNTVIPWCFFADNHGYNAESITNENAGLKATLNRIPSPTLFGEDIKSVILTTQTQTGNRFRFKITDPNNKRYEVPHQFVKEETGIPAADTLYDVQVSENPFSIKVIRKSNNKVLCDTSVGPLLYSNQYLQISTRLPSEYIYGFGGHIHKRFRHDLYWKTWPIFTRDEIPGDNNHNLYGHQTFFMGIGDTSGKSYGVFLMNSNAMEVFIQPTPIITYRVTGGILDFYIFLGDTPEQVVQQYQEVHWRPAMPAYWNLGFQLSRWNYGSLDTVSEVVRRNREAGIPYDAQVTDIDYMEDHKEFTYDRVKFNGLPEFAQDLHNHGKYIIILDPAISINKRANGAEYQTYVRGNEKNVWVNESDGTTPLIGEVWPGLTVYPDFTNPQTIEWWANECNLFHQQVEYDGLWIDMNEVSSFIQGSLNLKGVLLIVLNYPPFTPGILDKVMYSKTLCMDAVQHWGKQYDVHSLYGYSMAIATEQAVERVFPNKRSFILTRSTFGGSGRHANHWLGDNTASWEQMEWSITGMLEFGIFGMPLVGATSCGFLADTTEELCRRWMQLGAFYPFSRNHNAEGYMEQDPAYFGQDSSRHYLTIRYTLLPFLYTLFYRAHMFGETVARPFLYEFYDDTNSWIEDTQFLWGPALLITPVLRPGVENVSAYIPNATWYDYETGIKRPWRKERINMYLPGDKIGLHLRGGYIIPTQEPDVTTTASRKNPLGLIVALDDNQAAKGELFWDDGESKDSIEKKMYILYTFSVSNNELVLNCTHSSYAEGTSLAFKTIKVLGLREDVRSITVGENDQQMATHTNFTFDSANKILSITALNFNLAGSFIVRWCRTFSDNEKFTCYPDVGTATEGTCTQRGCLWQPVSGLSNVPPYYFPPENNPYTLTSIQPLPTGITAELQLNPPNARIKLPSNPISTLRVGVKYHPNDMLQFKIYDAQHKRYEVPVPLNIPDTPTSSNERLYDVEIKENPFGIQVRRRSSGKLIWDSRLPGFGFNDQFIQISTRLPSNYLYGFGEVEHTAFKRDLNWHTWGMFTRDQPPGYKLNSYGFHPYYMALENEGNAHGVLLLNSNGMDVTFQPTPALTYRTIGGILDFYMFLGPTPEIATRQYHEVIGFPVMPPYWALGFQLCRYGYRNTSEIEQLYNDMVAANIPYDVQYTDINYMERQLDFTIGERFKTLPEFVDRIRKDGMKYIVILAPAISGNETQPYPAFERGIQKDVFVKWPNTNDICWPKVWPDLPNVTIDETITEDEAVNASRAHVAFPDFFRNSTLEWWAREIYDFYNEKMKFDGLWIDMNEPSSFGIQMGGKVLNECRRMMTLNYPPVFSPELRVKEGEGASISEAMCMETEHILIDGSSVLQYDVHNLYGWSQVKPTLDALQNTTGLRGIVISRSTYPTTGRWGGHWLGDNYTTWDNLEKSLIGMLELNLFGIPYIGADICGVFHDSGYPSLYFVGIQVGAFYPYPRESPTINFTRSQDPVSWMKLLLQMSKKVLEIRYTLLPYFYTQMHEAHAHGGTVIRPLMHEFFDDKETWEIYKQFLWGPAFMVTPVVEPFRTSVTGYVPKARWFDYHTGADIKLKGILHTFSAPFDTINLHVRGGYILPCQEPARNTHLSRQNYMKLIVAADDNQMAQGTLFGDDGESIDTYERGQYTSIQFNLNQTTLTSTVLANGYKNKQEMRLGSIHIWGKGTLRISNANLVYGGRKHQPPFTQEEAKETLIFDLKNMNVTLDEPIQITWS
Experimental: One gram intestinal acetone powder rat (manufactured by SIGMA) was suspended in 10 mL of 0.1 M maleate buffer, pH 6.0 and then centrifuged (3,000 rpm, 4° C., 20 min.). The resulting supernatant was separated as a crude enzyme stock solution. This crude enzyme stock solution was diluted at the degree of dilution previously determined in the following control test, to prepare a crude enzyme dilution which was then used in the subsequent measurement of sucrase inhibiting activity.
A buffer solution 50 μL and 100 μL of 74 mM aqueous sucrose solution were pipetted into each test tube and pre-heated for 3 minutes in a water bath at 37° C. A diluted crude enzyme stock solution 50 μL was added to this test tube and reacted at 37° C. for 30 minutes. After the reaction was finished, 800 μL purified water was added. The mixture was further heated at 80° C. for 3 minutes thereby inactivating the enzyme to terminate the reaction. The concentration of glucose in the reaction solution was quantified by using a commercial kit/mutarotase-glucose oxidase method (Glucose CII Test Wako, manufactured by Wako Pure Chemical Industries, Ltd.).
As the test substance, the reticulanol of the present invention, and Salacinol and kotalanol for comparison, all of which were obtained in Preparative Example 2 above, were used. A solution […] of the test substance in 0.1 M maleate buffer, pH 6.0 was introduced into each test tube (concentration of the test substance: 3 to 30 μg/mL), and 100 μL of 74 mM aqueous sucrose was pipetted into each test tube and pre-heated for 3 minutes in a water bath at 37° C. The above crude enzyme dilution 50 μL was added to each test tube and reacted at 37° C. for 30 minutes. After the reaction was finished, 800 μL purified water was added to each test tube, and the mixture was further heated at 80° C. for 3 minutes thereby inactivating the enzyme to terminate the reaction.
After the reaction was terminated, the concentration of glucose in the reaction solution was quantified by using the glucose CII Test Wako (manufactured by Wako Pure Chemical Industries, Ltd.).
An aqueous sucrose solution 100 μL was mixed with 50 μL of each test substance dissolved in a maleate buffer. Purified water 800 μL was added thereto and then 50 μL crude enzyme dilution was added thereto, and immediately the mixture was heated to […] to inactivate the enzyme. Thereafter, the concentration of glucose in the reaction solution was measured by the same method as described above.
Sucrase inhibiting activity was calculated from the following equation: Sucrase inhibiting activity (%)={(Glc0−Glcx)/Glc0}×100 wherein Glcx is a value obtained by subtracting the glucose concentration in the corresponding blank test from the concentration of glucose in the test sample, and Glc0 is the glucose concentration in the corresponding control.
An inhibition curve was prepared by plotting the inhibiting activity (%) calculated by the above equation on the ordinate and the concentration of each test substance (μg/mL) on the abscissa. From this inhibition curve, 50% inhibition concentration (IC50 value) was calculated as an indicator of sucrase inhibiting activity.

Structure (SMILES)	α-glucosidase inhibiting activity compared with Glucobay (α-glucosidase)	IC50 (α-glucosidase (sucrase))	α-glucosidase inhibiting activity (in words) (α-glucosidase (sucrase))	α-glucosidase inhibiting activity relative to Salacinol (α-glucosidase (sucrase); compared with Salacinol)
O=S(=O)([O-])OC(C(O)C[S+]1CC(O)C(O)C1CO)C(O)C(O)C(O)CO (stereo not drawn) [Kotalanol, kotalanol]	almost equivalent	0.424 µM	very strong α-glucosidase inhibiting activity	
O=S(=O)([O-])OC(C(O)C[S+]1CC(O)C(O)C1CO)C(O)C(O)CO (stereo not drawn) [Reticulanol, reticulanol]		0.963 µM	very strong α-glucosidase inhibiting activity	at least twice as high
O=S(=O)([O-])O[C@H](CO)[C@@H](O)C[S+]1C[C@H](O)[C@@H](O)[C@@H]1CO (stereo partly drawn) [Salacinol]	almost equivalent	2.42 µM	very strong α-glucosidase inhibiting activity	
